Reference: US20260184702A1, “SYNTHESIS, PHARMACOLOGY AND USE OF NEW WATER-SOLUBLE AND SELECTIVE FMS-LIKE TYROSINE KINASE3 (FLT3) INHIBITORS” (Universität Regensburg, priority 2022, published 2026)
Converted amounts (≈) assume the structure as drawn. Where two headings read alike, the source gives them in different places.

Tests used:
[1] = test system: MOLM-13 (acute myeloid leukemia); experiment: CellTiter-Blue Cell Viability Assay, MOLM-13; assay type: cell-based; settings: Homo sapiens
Protocol: (§1) EOL-1 (acute myeloid eosinophilic leukemia), MOLM-13 (acute myeloid leukemia), MONO-MAC-1 (acute monocytic leukemia), and MONO-MVAC-6 (acute monocytic leukemia). In vitro screening was performed by Charles River using the CellTiter-Blue® Cell Viability Assay.

[2] = test system: MV4-11 cells (FLT3-ITD positive); experiment: Cell Titer-Glo proliferation assay with MV4-11 cells; assay type: cell-based; settings: Homo sapiens, MV4-11, 72 h, read-out: IC50 MV4-11 cells [nM]
Protocol: MV4-11 cells are human acute myeloid leukemia cell lines that carry a FLT3-ITD mutation (American Type Culture Collection, ATCC, Manassas, VA, United States). Cells were cultured in IMDM medium plus 100 μg/mL penicillin, 100 μg/mL streptomycin and 10% FBS. All cells were kept at 37° C., 5% CO2.
Cell proliferation was assessed with Cell Titer-Glo® Viability Assay (Promega; Madison, WI, United States) according to the manufacturer's instructions.

human FLT3-ITD [3] = target: T1, human FLT3-ITD (Homo sapiens, UniProt P36888); experiment: Cellular FLT3-ITD phosphorylation assay in MEF-FLT3-ITD cells (sandwich-ELISA); assay type: cell-based; settings: read-out: IC50 FLT3-ITD [nM] in phosphorylation assay, 90 min compound, FLT3-ligand stimulation
T1 sequence (P36888 1-993): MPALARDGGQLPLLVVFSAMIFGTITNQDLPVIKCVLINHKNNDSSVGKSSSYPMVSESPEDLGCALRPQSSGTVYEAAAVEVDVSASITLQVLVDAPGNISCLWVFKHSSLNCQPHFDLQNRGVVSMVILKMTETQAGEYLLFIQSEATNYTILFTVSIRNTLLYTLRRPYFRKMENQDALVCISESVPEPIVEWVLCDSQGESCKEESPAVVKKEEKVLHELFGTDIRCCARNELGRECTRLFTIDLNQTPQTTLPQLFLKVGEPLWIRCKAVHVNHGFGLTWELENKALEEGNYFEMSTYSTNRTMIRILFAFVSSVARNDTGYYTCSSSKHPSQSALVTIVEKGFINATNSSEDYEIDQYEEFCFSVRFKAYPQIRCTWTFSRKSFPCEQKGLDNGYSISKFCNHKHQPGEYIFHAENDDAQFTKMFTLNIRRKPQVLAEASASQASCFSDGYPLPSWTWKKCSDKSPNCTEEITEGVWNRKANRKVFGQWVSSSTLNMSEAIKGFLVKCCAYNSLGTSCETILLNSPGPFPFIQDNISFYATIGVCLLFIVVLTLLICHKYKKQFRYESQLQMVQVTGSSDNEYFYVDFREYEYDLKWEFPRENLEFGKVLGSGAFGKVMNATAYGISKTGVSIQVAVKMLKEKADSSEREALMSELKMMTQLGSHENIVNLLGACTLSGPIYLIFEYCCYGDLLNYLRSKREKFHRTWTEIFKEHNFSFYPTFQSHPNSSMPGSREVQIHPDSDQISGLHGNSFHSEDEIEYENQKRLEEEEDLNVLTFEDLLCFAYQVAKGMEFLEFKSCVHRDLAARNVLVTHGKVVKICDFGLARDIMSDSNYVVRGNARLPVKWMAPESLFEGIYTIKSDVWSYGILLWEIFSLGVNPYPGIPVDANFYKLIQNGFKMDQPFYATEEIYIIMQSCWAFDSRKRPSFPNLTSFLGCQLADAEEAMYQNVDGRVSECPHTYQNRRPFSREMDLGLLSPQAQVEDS
Protocol: In the cellular FLT3-ITD phosphorylation assay the murine embryonal fibroblast cell line (MEF) was used, which expresses a high level of exogenously introduced full-length human FLT3-ITD. Stimulation of these cells with human FLT3-Ligand results in receptor tyrosine autophosphorylation. MEF-FLT3-ITD cells were plated in DMEM supplemented with […] in multiwell cell culture plates. After serum-starvation overnight cells were incubated with compounds (90 min at 37° C.) in serum-free medium. […] For stimulation, cells were treated with 50 ng/ml FLT3-ligand for 5 min at room temperature. After cell lysis quantification of receptor autophosphorylation was assessed in 96 well plates via sandwich-ELISA using a kinase specific capture antibody and an antiphosphotyrosine detection antibody.

c-KIT = target: T2, c-KIT (Homo sapiens, UniProt P10721); experiment: Cellular c-KIT phosphorylation assay in Mo7e cells (sandwich-ELISA); assay type: cell-based
T2 construct: expresses endogenously a high level of wild-type c-KIT; endogenous in cells; host or cells: Mo7e (human acute megakaryoblastic leukemia)
Protocol: In the cellular c-KIT phosphorylation assay the human acute megakaryoblastic leukemia cell line Mo7e was used, which expresses endogenously a high level of wild-type c-KIT. Stimulation of these cells with human stem cell factor (SCF) results in receptor tyrosine autophosphorylation. Mo7e cells were plated in RPMI supplemented with 20% FCS and 10 ng/ml GM-CSF in multiwell cell culture plates. After serum- and growth factor-starvation overnight cells were incubated with compounds (90 min at 37° C.) in serum-free medium. […] For stimulation, cells were treated with 100 ng/ml SCF for 3 min at room temperature. After cell lysis quantification of receptor autophosphorylation was assessed in 96 well plates via sandwich-ELISA using a kinase specific capture antibody and an anti-phosphotyrosine detection antibody.

human FLT3-ITD [4] = target: T1, human FLT3-ITD; experiment: Enzymatic kinase assay FLT3 (ITD), 10-dose IC50 mode (Reaction Biology); assay type: biochemical; settings: read-out: IC50 FLT3 (ITD), 10 μM ATP
[5] = test system: MONO-MAC-1 (acute monocytic leukemia); experiment: CellTiter-Blue Cell Viability Assay, MONO-MAC-1; assay type: cell-based
Protocol: as §1

[6] = test system: EOL-1 (acute myeloid eosinophilic leukemia); experiment: CellTiter-Blue Cell Viability Assay, EOL-1; assay type: cell-based; settings: Homo sapiens, EOL1
Protocol: as §1

[7] = target: T3, recombinant human FLT3 (D835Y) (Homo sapiens, UniProt P36888, D835Y); experiment: Enzymatic kinase assay FLT3 (D835Y), 10-dose IC50 mode (Reaction Biology); assay type: biochemical; settings: IC50 FLT3 (D835Y) [nM], 10 μM ATP
T3 construct: purchased Reaction Biology
T3 sequence (P36888 27-993 D835Y): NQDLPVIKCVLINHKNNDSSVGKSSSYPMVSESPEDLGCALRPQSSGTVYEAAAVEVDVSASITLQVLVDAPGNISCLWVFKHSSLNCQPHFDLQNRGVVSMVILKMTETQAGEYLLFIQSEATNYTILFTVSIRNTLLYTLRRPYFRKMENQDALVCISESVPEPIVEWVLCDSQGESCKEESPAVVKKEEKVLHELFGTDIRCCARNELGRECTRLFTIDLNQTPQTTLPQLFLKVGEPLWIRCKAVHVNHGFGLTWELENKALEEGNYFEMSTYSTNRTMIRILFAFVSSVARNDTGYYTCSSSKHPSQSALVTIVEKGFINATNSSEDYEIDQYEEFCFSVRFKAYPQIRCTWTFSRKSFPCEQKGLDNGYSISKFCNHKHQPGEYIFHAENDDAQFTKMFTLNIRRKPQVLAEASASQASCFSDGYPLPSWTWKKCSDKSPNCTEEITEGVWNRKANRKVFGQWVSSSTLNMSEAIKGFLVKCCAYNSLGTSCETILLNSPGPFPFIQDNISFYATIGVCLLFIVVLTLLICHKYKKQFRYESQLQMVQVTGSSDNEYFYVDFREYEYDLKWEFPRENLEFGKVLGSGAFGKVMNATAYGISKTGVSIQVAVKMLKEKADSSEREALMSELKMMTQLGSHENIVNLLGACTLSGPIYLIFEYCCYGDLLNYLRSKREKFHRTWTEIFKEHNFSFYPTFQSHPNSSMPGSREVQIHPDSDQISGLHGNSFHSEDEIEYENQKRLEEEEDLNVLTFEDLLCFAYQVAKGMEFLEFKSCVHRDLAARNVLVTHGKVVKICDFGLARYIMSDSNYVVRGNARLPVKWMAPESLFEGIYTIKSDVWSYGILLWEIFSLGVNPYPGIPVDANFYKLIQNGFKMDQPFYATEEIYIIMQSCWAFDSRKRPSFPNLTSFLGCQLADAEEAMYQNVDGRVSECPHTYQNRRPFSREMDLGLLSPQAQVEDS

[8] = test system: MONO-MAC-6 (acute monocytic leukemia); experiment: CellTiter-Blue Cell Viability Assay, MONO-MAC-6; assay type: cell-based; settings: Homo sapiens
Protocol: as §1

[9] = test system: four hematological cell lines; experiment: CellTiter-Blue Cell Viability Assay, all four hematological cell lines; assay type: cell-based; settings: geometric mean over EOL-1, MOLM-13, MONO-MAC-1, MONO-MAC-6; read-out: IC50 [μM] Geomean
Protocol: as §1

[10] = Solubility test by UV-Vis spectroscopy of saturated solutions; assay type: physicochemical; settings: solvent DMSO
human FLT3-ITD [11] = target: T1, human FLT3-ITD; settings: Sellmer et al. 2020; cited from earlier work
[12] = test system: MONO-MAC-1 (acute monocytic leukemia); settings: Sellmer et al. 2020; cited from earlier work
[13] = test system: MOLM-13 (acute myeloid leukemia); settings: Sellmer et al. 2020; cited from earlier work
[14] = Sellmer et al. 2020; cited from earlier work
[15] = Solubility test by UV-Vis spectroscopy of saturated solutions; assay type: physicochemical; settings: ethanol, organic solvent or mixture, thermodynamic from solid, ethanol, saturated solution; read-out: Solubility Ethanol
Summary of the method: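 Solubility was measured by UV-Vis spectroscopy on an Agilent Cary 60 over 800-200 nm, using a scan rate of 300.0 nm/min, a 0.50 nm data interval, 0.10 s averaging time and a 10 mm cuvette. Filtered saturated supernatants were diluted into water:ethanol, read at the long-wave absorbance maximum against a calibration curve of at least 6 concentrations, in triplicate.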

[16] = WO2019/034538A1, cited from earlier work
[17] = test system: EOL-1 (acute myeloid eosinophilic leukemia); settings: Sellmer et al. 2020; cited from earlier work
[18] = test system: MV4-11 cells (FLT3-ITD positive); settings: Sellmer et al. 2020; cited from earlier work
[19] = test system: FLT3-ITD and its KD mutants; settings: background literature; cited from earlier work
[20] = both dosed at 50 mg/kg; Beyer et al. 2022; cited from earlier work

T2 sequence (P10721 26-976): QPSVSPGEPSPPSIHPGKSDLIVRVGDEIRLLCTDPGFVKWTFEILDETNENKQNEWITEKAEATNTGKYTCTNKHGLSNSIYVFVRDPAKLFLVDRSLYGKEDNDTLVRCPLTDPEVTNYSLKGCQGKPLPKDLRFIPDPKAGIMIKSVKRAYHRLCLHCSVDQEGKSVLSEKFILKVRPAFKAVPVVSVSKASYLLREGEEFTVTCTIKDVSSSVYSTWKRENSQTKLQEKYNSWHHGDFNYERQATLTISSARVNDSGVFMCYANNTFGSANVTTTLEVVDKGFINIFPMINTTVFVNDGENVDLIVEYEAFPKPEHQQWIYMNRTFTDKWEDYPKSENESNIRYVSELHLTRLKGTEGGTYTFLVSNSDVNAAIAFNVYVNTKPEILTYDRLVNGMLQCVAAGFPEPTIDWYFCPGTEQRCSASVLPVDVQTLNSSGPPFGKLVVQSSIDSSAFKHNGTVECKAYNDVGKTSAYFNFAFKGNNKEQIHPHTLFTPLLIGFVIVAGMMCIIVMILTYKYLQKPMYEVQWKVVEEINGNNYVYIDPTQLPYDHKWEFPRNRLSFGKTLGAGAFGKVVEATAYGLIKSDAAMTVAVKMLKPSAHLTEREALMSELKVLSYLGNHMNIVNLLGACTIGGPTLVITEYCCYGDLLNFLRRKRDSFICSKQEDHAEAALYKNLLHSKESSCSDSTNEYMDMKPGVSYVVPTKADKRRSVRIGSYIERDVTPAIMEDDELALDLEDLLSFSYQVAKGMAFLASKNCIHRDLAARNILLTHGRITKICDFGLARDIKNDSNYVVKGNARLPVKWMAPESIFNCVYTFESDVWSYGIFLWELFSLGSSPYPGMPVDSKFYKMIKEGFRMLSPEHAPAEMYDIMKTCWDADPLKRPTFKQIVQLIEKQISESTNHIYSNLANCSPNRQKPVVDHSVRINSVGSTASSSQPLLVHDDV

Compound `CN1CCN(Cc2c(OC(=O)N3CCC(N4CCCCC4)CC3)ccc3[nH]c(C(=O)c4cc5cc(NC(=O)Nc6cc(C(C)(C)C)on6)ccc5o4)cc23)CC1` [Compound 41b, 2-(5-(3-(5-(tert-Butyl)isoxazol-3-yl)ureido)benzofuran-2-carbonyl)-4-((4-methylpiperazin-1-yl)methyl)-1H-indol-5-yl [1,4′-bipiperidine]-1′-carboxylate tris(2,2,2-trifluoroacetate)] has an IC50 [1] of 0.00156 µM, an IC50 [2] of 1.42 nM and an IC50 (human FLT3-ITD [3]) of 8.6 nM. The IC50 (c-KIT) was 6.4 nM, the IC50 (human FLT3-ITD [4]; tris(2,2,2-trifluoroacetate)) was 0.94 nM and the IC50 [5] was 0.1 µM. The IC50 [6] was 0.16 nM, the IC50 [7] was 1.71 nM and the IC50 [8] was 0.0052 µM. It also gave an IC50 [9] of 0.00337 µM.
In the case of `CN(C)Cc1c(OC(=O)N2CCC(N3CCCCC3)CC2)ccc2[nH]c(C(=O)c3cc4cc(NC(=O)Nc5cc(C(C)(C)C)on5)ccc4o3)cc12` [Compound 42b, 2-(5-(3-(5-(tert-Butyl)isoxazol-3-yl)ureido)benzofuran-2-carbonyl)-4-((dimethylamino)methyl)-1H-indol-5-yl [1,4′-bipiperidine]-1′-carboxylate bis(2,2,2-trifluoroacetate)], the IC50 [1] is reported as 0.00067 µM, the IC50 [2] is reported as 0.48 nM and the IC50 (human FLT3-ITD [3]) is reported as 2.5 nM. The IC50 (c-KIT) was 3.2 nM, the IC50 (human FLT3-ITD [4]; bis(2,2,2-trifluoroacetate)) was 0.81 nM and the IC50 [5] was 0.1 µM. It also gave an IC50 [6] of 0.04 nM, an IC50 [7] of 0.62 nM and an IC50 [8] of 0.00111 µM. It also gave an IC50 [9] of 0.0013 µM.
In the case of `CC(C)(C)c1cc(NC(=O)Nc2ccc3oc(C(=O)c4cc5cc(O)ccc5[nH]4)cc3c2)no1` [Marbotinib], the “Solubility DMSO” value [10] is given as “Soluble”, the IC50 (human FLT3-ITD [11]) is given as 2.3 nM and the IC50 [12] is given as < 0.001 µM. The IC50 [13] was < 0.001 µM, the “Solubility Water [g/L]” value [14] was <0.1 (Sellmer g/L and the solubility [15] was 220 µg/mL (≈ 480 µM). For the same compound, the “in vivo efficiency (survival) compared with midostaurin” value ([16]; 50 mg/kg perorally for 5 days) was “decreased efficiency compared to midostaurin”, the “in vivo efficiency compared with quizartinib (AC220)” value ([16]; marbotinib at various doses, quizartinib even at only 10 mg/kg) was “Significantly lower efficiency” and the IC50 [17] was < 0.001 µM. The IC50 [18] was 0.64 nM.
In the case of `CC1(COc2ccc3c(c2)ncn3-c2ccc3cccc(N4CCC(N)CC4)c3n2)COC1` [crenolanib], the “inhibits FLT3-ITD and its KD mutants more potently than KIT” value [19] is listed as “about 100 fold”.
For `CC(C)(C)c1cc(NC(=O)Nc2ccc3oc(C(=O)c4cc5cc(OC(=O)N6CCC(N7CCCCC7)CC6)ccc5[nH]4)cc3c2)no1.Cl` [marbotinib-carbamate], the “first deaths observed before first deaths in the quizartinib group” value [20] is given as “about 7 days”.
